The source of these data is ChEMBL document CHEMBL1126062, “Benzofuran bioisosteres of hallucinogenic tryptamines” (J Med Chem, 1992).

pKi: −log10 of the molar value.

Experiment [1] addresses Serotonin 2 (5-HT2) receptor (Rattus norvegicus, UniProt P30994+P08909+P14842). Description: Affinity on 5-hydroxytryptamine 2 receptor labeled by [125I]DOI. In kind it is protein assay.
The target in experiment [2] is T1, 5-hydroxytryptamine receptor 1A (Rattus norvegicus, UniProt P19327).
T1 sequence (P19327 whole entry): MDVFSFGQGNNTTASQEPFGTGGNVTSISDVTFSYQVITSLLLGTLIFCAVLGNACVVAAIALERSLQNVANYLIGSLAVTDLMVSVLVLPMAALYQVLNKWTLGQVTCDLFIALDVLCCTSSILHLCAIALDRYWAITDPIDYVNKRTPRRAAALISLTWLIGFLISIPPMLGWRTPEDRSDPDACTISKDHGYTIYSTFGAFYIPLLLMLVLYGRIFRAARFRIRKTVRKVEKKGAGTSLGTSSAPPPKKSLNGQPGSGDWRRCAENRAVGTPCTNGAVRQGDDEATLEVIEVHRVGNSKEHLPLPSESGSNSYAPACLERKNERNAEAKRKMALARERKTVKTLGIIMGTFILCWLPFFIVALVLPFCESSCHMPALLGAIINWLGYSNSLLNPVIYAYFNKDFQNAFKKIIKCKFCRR
In words: Affinity on 5-hydroxytryptamine 1A receptor labeled by [3H]8-OH-DPAT.

In the case of `COc1ccc2occ(CC(C)N)c2c1` (racemic), in experiment [1], the Ki came out at 42 nM. In addition, the pKi in experiment [2] is 6.35.
`COc1ccc2[nH]cc(CCN(C)C)c2c1` [MEBUFOTENIN] showed a pKi in experiment [2] of 7.16.
For `COc1ccc2occ(CCN(C)C)c2c1`, the inhibitory constant (Ki) in experiment [1] is 95 nM. In experiment [2], this compound gave a pKi of 7.00.
Taken in the same sequence, the figures for `COc1ccc2occ(CC(C)N)c2c1` (stereo in doubt; 4) were 27.1 nM and 6.11.
